Five molecules from patent US5104862A, “Bethalactam elastase inhibitors containing phosphorous acid derivatives at the 4-position of the 2-azetidinone” (Merck & Co., Inc., priority 1991, dated 1992) can be followed below.

Molecules are shown by their SMILES.

This assay deals with T1, human polymorphonuclear leukocyte elastase (human granulocyte elastase) (Homo sapiens, UniProt P08246).
T1 construct: Crude extract of human polymorphonuclear leukocytes (PMN) containing elastase activity; endogenous in cells; host or cells: human polymorphonuclear leukocytes (crude extract)
T1 sequence (P08246 30-267): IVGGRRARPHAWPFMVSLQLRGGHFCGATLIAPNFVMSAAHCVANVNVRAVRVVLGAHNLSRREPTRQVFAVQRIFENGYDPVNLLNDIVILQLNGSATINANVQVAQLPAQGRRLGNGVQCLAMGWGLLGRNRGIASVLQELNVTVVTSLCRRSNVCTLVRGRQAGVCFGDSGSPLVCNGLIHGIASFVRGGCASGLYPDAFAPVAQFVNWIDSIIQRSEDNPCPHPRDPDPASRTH
In words: Enzyme assay for inhibition of human polymorphonuclear leukocyte elastase via hydrolysis of Boc-AAPAN or Boc-AAPVN. In kind it is biochemical. Particulars: crude extract of human PMN; 0.2 mM Boc-AAPAN or Boc-AAPVN; 0.05M TES buffer pH 7.5; read-out: kobs /I, second order rate constant for inactivation of the enzyme. How it is done:
Enzyme Assays for the Inhibition of Human Polymorphonuclear Leukocyte Elastase Via Hydrolysis of N-t-Boc-alanyl-alanyl-prolyl-alanine-p-nitroanilide (Boc-AAPAN) or N-t-Boc-alanyl-prolyl-valine-p-nitroanilide (Boc-AAPVN) Reagent
0.05M TES (N-tris[hydroxymethyl]methyl-2-amino-ethanesulfonic acid) Buffer, pH 7.5.
0.2 mM Boc-AAPAN or Boc-AAPVN.
To prepare substrate, the solid was first dissolved in 10.0 ml DMSO. Buffer at pH 7.5 was then added to a final volume of 100 ml.
Crude extract of human polymorphonuclear leukocytes (PMN) containing elastase activity.
Inhibitors (azetidinones) to be tested dissolved in DMSO just before use.
To 1.0 ml of 0.2 mM Boc-AAPAN in a cuvette, 0.01-0.1 ml of DMSO with or without inhibitor was added. After mixing, a measurement was taken at 410 mμ to detect any spontaneous hydrolysis due to presence of test compound. 0.05 Milliliters of PMN extract was then added and the ΔOD/min at 410 mμ was measured and recorded. Beckman model 35 spectrophotometer was used.
The elastase activity in the crude PMN extract may vary from one preparation to another. A control of each new batch is run, and the volume added in the assay procedure is adjusted according to activity.

Turning to `CCC[C@@H](NC(=O)N1C(=O)C(CC)(CC)[C@@H]1Oc1ccc(CP(=O)(O)c2ccccc2)cc1)c1ccc(C)cc1` [Example 2], the kinact/KI worked out at 1.2e+06 M⁻¹ s⁻¹.

With `C=CCP(=O)(Cc1ccc(O[C@@H]2N(C(=O)N[C@H](CCC)c3ccc(C)cc3)C(=O)C2(CC)CC)cc1)OCC` (stereo partly drawn) [Example 3, (4S)-3,3-Diethyl-1-[(R)-α-n-propyl(4-methyl)-benzylaminocarbonyl]-4-[4-(allyl(ethoxyphosphinyl)methyl)phenoxy]-azetidin-2-one], the kinact/KI stood at 1.3e+06 M⁻¹ s⁻¹.

In the case of `C=CCP(=O)(O)Cc1ccc(O[C@@H]2N(C(=O)N[C@H](CCC)c3ccc(C)cc3)C(=O)C2(CC)CC)cc1` [Example 4, (4S)-3,3-Diethyl-1-[(R)-α-n-propyl(4-methyl)-benzylaminocarbonyl]-4-[4-(allyl(hydroxyphosphinyl)methyl)phenoxy]-azetidin-2-one], the kinact/KI is 740000 M⁻¹ s⁻¹.

With `CCC[C@@H](NC(=O)N1C(=O)C(CC)(CC)[C@@H]1Oc1ccc(CP(C)(=O)O)cc1)c1ccc(C)cc1` [Example 6, (4S)-3,3-Diethyl-1-[(R)-α-n-propyl(4-methyl)-benzylaminocarbonyl]-4-[4-(methyl(hydroxyphosphinyl)methyl)phenoxy]-azetidin-2-one], the kinact/KI was determined as 420000 M⁻¹ s⁻¹.

On to `CCC[C@@H](NC(=O)N1C(=O)C(CC)(CC)[C@@H]1Oc1ccc(CP(=O)(O)CCC)cc1)c1ccc(C)cc1` [Example 8, (4S)-3,3-Diethyl-1-[(R)-α-n-propyl(4-methyl)-benzylaminocarbonyl]-4-[4-(n-propyl(hydroxyphosphinyl)methyl)-phenoxy]-azetidin-2-one], for which the kinact/KI was 910000 M⁻¹ s⁻¹.
